# Laboratory results as given in ChEMBL document CHEMBL1201862, “PubChem BioAssay data set” (2004).
# Active and inactive are the calls of the source.
# Columns and labels:
# [1] = target: Glyceraldehyde-3-phosphate dehydrogenase (Homo sapiens, UniProt P04406)
# Bcl-2-related protein A1 [2] = target: T1, Bcl-2-related protein A1 (Mus musculus, UniProt Q07440); assay: small-molecule antagonists of Bfl-1/BH3 interaction – biochemical, TR-FRET, mouse Bfl-1, confirmation (AID 621);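 also: TR-FRET binding of GST-Bfl-1 to FITC-labelled Bid peptide via terbium antibody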
# T1 sequence (Q07440 whole entry): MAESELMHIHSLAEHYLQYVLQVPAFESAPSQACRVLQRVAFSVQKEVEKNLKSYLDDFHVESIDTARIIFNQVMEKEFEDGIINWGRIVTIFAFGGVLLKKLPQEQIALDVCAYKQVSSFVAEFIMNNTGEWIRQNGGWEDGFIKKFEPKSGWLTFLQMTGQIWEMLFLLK
# Bcl-2-related protein A1 [3] = target: T1, Bcl-2-related protein A1; assay: Bfl-1 binding inhibitors, SAR follow-up, biochemical, fluorescence polarization (AID 1070)
# Estrogen receptor = target: T2, Estrogen receptor (Homo sapiens, UniProt P03372); assay: blockers of SRC-3 recruitment to ERα – biochemical, ELISA, streptavidin-HRP readout, orthogonal assay, confirmation (AID 1079)
# T2 sequence (P03372 whole entry): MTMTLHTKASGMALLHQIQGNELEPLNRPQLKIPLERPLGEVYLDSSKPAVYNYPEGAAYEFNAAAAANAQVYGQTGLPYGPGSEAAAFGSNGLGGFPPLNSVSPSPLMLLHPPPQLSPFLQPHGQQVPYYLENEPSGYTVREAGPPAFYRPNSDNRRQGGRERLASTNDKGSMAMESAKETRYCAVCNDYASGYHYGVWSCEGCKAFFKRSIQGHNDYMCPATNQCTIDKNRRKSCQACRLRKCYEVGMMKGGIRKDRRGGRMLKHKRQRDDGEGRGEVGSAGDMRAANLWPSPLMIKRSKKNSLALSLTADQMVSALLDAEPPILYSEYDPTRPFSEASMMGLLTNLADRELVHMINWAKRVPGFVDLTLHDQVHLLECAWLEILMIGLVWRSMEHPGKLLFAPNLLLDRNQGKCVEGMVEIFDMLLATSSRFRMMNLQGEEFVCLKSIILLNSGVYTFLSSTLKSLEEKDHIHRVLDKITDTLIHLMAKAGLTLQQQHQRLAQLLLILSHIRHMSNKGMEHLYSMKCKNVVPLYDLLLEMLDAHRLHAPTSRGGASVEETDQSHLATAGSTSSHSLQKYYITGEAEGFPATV
# HeLa = assay: Cytotoxicity counterscreen assay for transcriptional activators of heat shock protein 70 (Hsp70). [Related pubchem assays: 1203, 1252 ]; assay type: functional; conditions: Homo sapiens;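 also: cells exposed to compound for 16 hours before readout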
# [4] = target: T3, Microphthalmia-associated transcription factor (Homo sapiens, UniProt O75030); assay: reducers of TRPM1 reporter luminescence, concentration series – cell-based, SK-MEL-5, cherry-picked, set 3, MITF inhibitor project, dose response (AID 493073); assay type: functional;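 also: SK-MEL-5 melanoma cells with luciferase driven by the MITF target TRPM1 promoter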
# T3 sequence (O75030 whole entry): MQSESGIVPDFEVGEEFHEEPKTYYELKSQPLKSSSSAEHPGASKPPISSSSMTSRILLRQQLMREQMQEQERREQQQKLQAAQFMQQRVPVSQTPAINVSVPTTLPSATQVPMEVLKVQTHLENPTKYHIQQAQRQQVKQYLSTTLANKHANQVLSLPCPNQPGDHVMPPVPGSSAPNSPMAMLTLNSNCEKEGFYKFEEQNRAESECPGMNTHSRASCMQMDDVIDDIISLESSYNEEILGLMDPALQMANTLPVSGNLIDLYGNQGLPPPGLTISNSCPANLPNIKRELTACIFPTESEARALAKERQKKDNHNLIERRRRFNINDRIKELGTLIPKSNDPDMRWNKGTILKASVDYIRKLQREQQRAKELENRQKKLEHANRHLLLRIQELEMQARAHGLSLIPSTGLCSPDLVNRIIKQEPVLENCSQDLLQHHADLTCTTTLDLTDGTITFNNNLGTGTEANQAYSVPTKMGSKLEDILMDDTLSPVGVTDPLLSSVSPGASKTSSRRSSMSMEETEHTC
# [5] = reduction of Shn3 3'UTR-driven luciferase in osteoblasts – cell-based, Clone20 osteoblasts, firefly luciferase, cherry-picked, dose response (AID 624132); assay type: functional;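 also: firefly luciferase luminescence from reporter carrying the Shn3 3'UTR in osteoblasts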
# [6] = loss of viability in HepG2 cells – cell-based, CellTiter-Glo, cherry-picked, cytotoxicity control for Shn3 inhibitor project, dose response (AID 624134); assay type: functional
# [7] = non-specific 3'UTR reporter inhibition in Clone20-Shn3RL – cell-based, Renilla luciferase, cherry-picked, counter-screen for Shn3 inhibitor project, dose response (AID 624133); assay type: functional
# Paired box protein Pax-8 = Paired box protein Pax-8 (Homo sapiens, UniProt Q06710); assay: PAX8 transcriptional activity inhibition in RMG-I – RMG-I cells, luciferase, cherry-pick, dose response (AID 687027); assay type: functional, cell-based;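 also: luciferase reporter driven by Pax8 target thyroperoxidase promoter measured by SteadyGlo luminescence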
# [8] = target: Sphingosine 1-phosphate receptor 2 (Homo sapiens, UniProt O95136); assay: Dose Response Cell Based Assay for Agonists of the S1P2 Receptor of Purchased Analogues. [Related pubchem assays: 729, 843, 854, 736 ]; assay type: functional
# Bcl-2-like protein 10 = Bcl-2-like protein 10 (Homo sapiens, UniProt Q9HD36); assay: Concentration-response of Bcl-B inhibitors by biochemical FP with TR3 (AID 1243); assay type: functional
# [9] = target: T4, Aryl hydrocarbon receptor (Homo sapiens, UniProt P35869); assay: Luminescence-based cell-based high throughput dose response assay for activators of the Aryl Hydrocarbon Receptor (AHR). [Related pubchem assays: 2796 (Primary screen (AHR activators in singlicate)), 2845 (Confirmation screen (AHR activators in triplicate)), 434939 (Counterscreen (PXR activators in triplicate)), 2804 (Summary (AHR activators))]; assay type: ADME
# T4 sequence (P35869 whole entry): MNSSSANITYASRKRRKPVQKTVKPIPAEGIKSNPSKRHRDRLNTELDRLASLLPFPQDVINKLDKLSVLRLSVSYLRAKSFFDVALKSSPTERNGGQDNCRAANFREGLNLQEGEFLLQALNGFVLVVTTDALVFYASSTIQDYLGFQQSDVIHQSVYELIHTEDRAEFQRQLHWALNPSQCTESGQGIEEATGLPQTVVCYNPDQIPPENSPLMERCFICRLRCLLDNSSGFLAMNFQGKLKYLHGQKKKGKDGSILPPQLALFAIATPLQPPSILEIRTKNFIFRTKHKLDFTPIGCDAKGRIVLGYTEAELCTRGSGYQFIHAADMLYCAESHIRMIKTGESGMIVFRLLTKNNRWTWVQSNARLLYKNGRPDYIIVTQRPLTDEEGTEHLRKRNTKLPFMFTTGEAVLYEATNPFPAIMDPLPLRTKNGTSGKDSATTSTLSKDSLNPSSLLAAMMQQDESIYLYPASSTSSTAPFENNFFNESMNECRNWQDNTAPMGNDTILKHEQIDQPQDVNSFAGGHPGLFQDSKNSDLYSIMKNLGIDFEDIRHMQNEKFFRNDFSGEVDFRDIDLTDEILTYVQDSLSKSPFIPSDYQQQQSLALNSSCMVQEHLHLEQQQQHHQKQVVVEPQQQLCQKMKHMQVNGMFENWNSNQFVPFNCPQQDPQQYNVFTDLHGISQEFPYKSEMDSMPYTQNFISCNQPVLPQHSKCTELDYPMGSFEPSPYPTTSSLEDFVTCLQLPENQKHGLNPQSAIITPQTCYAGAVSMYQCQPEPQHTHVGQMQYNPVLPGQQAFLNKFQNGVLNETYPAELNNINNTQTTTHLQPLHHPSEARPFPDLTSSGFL
# [10] = target: Inward rectifier potassium channel 2 (Mus musculus, UniProt P35561); assay: Manual electrophysiological patch clamp assay for SAR compounds that inhibit/block inward-rectifying potassium ion channel Kir2.1. [Related pubchem assays: 1843 (Summary assay for Kir2.1 inhibitor assays.), 1672 (Primary HTS of 305616 compounds where 2592 were identified as active.)]; assay type: functional
# [11] = antiviral protection against BTV-induced cell death – arbovirus, BSR cells, confirmation (AID 1250); assay type: functional;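 also: protection from viral cytopathic effect measured as cell viability by ATP luminescence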
# Mucolipin-3 = Mucolipin-3 (Homo sapiens, UniProt Q8TDD5); assay: Dose response cell-based high-throughput screening assay for agonists of the transient receptor potential channel ML3 (TRPML3). [Related pubchem assays: 1526, 1424, 1448 ]; assay type: functional
# Ion channel NompC = Ion channel NompC (Danio rerio, UniProt Q7T1G6); assay: Fluorescence counterscreen assay for TRPML3 agonists: dose response cell-based high-throughput screening assay to identify agonists of the transient receptor potential channel N1 (TRPN1). [Related pubchem assays: 1526, 1424, 1448 ]; assay type: functional
# [12] = target: Mothers against decapentaplegic homolog 3 (Homo sapiens, UniProt P84022); assay: inhibitors of SMAD-driven TGF-beta signaling – dose response (AID 715); assay type: functional
# [13] = target: Protein-tyrosine kinase 2-beta (Homo sapiens, UniProt Q14289);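 also: potency of inhibitors of PYK2 kinase phosphorylation of poly-GT substrate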
# [14] = target: Eukaryotic translation initiation factor 4E (Mus musculus, UniProt P63073); assay: blockers of eIF4G binding by eIF4E – biochemical, TR-FRET, dose response (AID 855); assay type: functional;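 also: potency for disrupting eIF4E binding to eIF4GI seen as loss of FRET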
# BJ [15] = assay: BJ-TERT fibroblast viability loss – cell-based, RAS-independent, luminescence, dose response (AID 1933); assay type: functional; conditions: Homo sapiens
# BJ [16] = assay: cells; assay type: functional, cell-based; conditions: Homo sapiens
# [17] = Luminescence-based dose response cell-based high throughput screening assay for cytotoxic compounds using the IEC-6 intestinal epithelial cell line. [Related pubchem assays: 1858 (Summary AID.), 1825 (Counterscreen.), 1907 (Confirmation screen.)]; assay type: functional
# BJ [18] = assay: BJ-TERT-LT-ST fibroblast viability loss – cell-based, RAS-independent, luminescence, dose response (AID 1935); assay type: functional; conditions: Homo sapiens;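 also: BJ fibroblasts immortalized with TERT plus LT and ST oncogenes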
# [19] = DRD fibroblast viability loss – cell-based, non-viral oncogenic, luminescence, dose response (AID 1934); assay type: functional; conditions: Homo sapiens
# BJ [20] = assay: growth inhibition of engineered Ras-driven BJ cells – cell-based, alamar blue fluorescence, cherrypicked samples, dose response (AID 2631); assay type: functional; conditions: Homo sapiens;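 also: confirmatory dose-response assay in RAS-dependent BJ fibroblasts engineered with TERT, LT and ST, with cytotoxicity read by fluorescence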
# Vero = assay: cells; assay type: functional; conditions: Chlorocebus sabaeus
# [21] = A High Throughput Confirmatory Assay used to Identify Novel Compounds that Inhibit Mycobacterium Tuberculosis in the absence of Glycerol.; assay type: functional
# [22] = microbe, parasite or virus in culture; assay type: functional; conditions: Mycobacterium tuberculosis
# HEK293 [23] = assay: cells; conditions: Homo sapiens
# HEK293 [24] = assay: cells; conditions: Homo sapiens; remark: listed apart in the source
# [25] = Luminescence Cell-Based Dose Response to Identify Activators of 5'UTR Stem-Loop Driven Prion Protein mRNA Translation in H4-C Neuroglioblastoma Cells. [Related pubchem assays: 1829 (Project Summary), 1814 (Primary HTS)]; assay type: functional
# [26] = Luminescence Cell-Based Dose Response HTS to Identify Activators of Luciferase Translation or Activity in H4 […] Cells. [Related pubchem assays: 1829 (Project Summary), 1814 (Primary HTS)]; assay type: functional
# [27] = Luminescence Cell-Based Dose Response to Identify Activators of Luciferase Translation or Activity in H4-C Neuroglioblastoma Cells. [Related pubchem assays: 1829 (Project Summary), 1814 (Primary HTS)]; assay type: functional
# [28] = Luminescence Cell-Based Dose Confirmation to Identify Activators of 5'UTR Stem-Loop Driven Alpha-Synuclein mRNA Translation in H4 Neuroglioblastoma Cells. [Related pubchem assays: 1829 (Project Summary), 1814 (Primary HTS)]; assay type: functional
# Sphingosine 1-phosphate receptor 2, sequence (O95136 whole entry): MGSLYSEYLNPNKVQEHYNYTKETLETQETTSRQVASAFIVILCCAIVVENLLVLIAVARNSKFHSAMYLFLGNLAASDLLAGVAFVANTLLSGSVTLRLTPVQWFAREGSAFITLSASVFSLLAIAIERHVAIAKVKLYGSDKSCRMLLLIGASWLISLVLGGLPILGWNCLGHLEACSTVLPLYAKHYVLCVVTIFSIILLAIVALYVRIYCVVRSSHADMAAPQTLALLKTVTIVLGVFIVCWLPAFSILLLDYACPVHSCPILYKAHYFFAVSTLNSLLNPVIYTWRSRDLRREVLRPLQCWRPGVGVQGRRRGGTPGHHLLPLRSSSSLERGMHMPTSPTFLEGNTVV
# Mothers against decapentaplegic homolog 3, sequence (P84022 whole entry): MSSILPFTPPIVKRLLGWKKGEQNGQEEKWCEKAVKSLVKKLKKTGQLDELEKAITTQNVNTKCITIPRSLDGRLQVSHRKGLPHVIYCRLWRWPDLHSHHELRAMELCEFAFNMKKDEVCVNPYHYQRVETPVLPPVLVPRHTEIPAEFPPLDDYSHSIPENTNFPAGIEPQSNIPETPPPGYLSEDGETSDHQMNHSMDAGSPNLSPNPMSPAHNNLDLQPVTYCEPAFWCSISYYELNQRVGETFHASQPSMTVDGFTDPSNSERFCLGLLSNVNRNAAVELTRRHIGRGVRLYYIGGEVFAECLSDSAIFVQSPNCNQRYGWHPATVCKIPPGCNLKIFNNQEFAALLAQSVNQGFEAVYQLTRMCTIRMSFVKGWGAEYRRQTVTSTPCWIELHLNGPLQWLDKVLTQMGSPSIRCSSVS
# Ion channel NompC, sequence (Q7T1G6 whole entry): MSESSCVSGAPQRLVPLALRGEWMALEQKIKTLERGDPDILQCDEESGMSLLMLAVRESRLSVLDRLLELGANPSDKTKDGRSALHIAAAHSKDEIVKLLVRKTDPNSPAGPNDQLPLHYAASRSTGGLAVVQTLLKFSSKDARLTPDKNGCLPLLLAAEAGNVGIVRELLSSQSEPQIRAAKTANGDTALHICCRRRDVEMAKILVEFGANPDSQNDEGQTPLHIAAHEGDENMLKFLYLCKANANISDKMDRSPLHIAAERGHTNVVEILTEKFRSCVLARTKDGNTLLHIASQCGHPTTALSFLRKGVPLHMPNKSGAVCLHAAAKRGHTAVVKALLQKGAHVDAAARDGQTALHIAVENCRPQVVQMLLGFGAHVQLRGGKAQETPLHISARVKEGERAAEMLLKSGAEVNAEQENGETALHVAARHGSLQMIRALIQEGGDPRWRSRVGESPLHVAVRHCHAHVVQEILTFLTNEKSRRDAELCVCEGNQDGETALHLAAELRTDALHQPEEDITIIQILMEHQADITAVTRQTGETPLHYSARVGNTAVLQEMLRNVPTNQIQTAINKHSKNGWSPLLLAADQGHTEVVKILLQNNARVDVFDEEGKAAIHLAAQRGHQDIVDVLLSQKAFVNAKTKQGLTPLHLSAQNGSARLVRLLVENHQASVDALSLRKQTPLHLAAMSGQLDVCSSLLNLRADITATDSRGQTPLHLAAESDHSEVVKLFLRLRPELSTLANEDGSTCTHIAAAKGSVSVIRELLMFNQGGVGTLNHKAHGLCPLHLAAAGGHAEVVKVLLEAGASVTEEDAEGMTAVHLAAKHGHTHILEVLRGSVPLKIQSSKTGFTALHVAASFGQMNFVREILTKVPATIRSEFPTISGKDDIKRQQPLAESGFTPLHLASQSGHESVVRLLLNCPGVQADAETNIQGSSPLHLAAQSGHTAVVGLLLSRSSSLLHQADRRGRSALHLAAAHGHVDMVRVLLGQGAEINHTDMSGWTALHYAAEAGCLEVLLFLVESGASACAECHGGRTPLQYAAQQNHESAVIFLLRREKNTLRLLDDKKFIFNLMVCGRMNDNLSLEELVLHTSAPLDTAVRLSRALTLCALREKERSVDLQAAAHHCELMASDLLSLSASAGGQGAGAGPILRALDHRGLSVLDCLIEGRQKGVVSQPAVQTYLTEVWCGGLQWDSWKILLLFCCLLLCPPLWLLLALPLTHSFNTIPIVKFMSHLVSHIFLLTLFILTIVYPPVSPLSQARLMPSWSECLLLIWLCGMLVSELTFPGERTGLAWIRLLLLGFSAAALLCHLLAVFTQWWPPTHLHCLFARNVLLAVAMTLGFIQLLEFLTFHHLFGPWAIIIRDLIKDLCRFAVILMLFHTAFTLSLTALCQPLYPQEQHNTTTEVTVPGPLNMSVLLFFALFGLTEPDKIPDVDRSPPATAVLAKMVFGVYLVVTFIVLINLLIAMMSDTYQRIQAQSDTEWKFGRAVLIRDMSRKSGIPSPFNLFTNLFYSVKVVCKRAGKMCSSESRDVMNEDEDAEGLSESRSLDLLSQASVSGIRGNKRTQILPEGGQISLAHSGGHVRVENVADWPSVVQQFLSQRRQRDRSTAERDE
# Eukaryotic translation initiation factor 4E, sequence (P63073 whole entry): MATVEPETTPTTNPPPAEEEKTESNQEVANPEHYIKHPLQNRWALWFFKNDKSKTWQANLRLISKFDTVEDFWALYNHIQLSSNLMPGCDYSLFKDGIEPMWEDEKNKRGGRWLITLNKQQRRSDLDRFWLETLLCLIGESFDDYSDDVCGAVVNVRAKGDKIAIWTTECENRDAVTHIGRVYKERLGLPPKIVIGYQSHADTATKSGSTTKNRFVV
# Glyceraldehyde-3-phosphate dehydrogenase, sequence (P04406 whole entry): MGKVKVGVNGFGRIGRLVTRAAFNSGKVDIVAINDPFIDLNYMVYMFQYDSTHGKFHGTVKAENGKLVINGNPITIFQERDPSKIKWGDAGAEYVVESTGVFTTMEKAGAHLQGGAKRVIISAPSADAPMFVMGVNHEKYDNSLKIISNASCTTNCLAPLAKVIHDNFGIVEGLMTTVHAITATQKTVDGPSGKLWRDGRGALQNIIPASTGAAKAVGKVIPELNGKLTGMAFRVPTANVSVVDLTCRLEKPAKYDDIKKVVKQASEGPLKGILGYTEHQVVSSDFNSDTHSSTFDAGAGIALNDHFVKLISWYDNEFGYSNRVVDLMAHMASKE
# Mucolipin-3, sequence (Q8TDD5 whole entry): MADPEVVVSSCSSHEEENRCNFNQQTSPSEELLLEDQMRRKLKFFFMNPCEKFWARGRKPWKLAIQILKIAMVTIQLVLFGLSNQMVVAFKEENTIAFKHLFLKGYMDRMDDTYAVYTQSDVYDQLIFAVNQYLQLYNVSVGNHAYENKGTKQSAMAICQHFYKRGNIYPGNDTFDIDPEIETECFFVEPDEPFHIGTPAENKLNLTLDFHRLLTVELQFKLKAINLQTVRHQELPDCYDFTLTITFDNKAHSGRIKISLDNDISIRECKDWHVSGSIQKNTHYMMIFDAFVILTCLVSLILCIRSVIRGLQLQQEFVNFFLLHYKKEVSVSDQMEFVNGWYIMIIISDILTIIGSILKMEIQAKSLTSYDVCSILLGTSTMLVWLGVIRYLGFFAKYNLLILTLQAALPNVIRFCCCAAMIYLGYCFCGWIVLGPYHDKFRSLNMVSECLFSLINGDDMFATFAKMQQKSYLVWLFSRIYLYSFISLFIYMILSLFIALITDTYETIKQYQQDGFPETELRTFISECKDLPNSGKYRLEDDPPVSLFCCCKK
# Paired box protein Pax-8, sequence (Q06710 whole entry): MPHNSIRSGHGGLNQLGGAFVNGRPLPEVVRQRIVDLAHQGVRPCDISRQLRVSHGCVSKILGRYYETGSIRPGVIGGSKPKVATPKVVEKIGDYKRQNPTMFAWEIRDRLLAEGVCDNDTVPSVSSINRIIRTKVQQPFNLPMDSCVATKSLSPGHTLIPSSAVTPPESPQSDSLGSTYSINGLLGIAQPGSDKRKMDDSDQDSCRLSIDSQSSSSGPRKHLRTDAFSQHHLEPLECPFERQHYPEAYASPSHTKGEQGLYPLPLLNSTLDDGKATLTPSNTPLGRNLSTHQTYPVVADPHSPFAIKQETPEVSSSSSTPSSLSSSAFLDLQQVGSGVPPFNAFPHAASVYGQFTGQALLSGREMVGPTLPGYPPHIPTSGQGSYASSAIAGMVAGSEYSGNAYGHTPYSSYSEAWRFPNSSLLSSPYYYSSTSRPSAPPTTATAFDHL
# Protein-tyrosine kinase 2-beta, sequence (Q14289 whole entry): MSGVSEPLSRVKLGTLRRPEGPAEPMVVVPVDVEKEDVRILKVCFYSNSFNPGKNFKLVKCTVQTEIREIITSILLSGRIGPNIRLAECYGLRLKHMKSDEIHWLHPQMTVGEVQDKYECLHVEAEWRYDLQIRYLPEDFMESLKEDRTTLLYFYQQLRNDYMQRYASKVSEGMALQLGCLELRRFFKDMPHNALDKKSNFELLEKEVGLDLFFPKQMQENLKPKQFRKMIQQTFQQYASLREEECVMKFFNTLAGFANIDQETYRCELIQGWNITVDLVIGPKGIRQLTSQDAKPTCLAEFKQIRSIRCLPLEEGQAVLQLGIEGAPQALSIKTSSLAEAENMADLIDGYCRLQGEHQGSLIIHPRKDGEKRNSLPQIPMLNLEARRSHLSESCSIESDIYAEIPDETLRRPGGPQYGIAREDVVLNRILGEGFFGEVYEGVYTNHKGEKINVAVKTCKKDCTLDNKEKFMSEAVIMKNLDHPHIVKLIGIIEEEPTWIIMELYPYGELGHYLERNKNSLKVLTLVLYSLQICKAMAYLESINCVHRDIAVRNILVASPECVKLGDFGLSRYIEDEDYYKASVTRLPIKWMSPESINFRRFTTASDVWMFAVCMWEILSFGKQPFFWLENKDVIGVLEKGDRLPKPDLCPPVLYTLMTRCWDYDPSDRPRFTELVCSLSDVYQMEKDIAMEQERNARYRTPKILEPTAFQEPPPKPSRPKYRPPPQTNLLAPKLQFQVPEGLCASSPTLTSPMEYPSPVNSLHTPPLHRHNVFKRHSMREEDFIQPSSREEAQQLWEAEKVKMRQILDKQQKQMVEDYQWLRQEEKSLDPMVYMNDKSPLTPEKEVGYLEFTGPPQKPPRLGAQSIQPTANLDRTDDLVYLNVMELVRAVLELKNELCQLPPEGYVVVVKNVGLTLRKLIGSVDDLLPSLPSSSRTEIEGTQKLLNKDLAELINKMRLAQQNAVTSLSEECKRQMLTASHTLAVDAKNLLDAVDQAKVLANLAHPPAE
smiles,measurement,setting,value
COc1ccc(N2CCN(C3=C(Cl)C(=O)N(c4ccc(Cl)c(Cl)c4)C3=O)CC2)cc1,IC50,[1],> 100 µM (not active)
same,IC50,Bcl-2-related protein A1 [2],6.79 µM (active)
same,IC50,Bcl-2-related protein A1 [3],1.25 µM (active)
CC(C)(C)OC(=O)[C@@H](CCC(=O)N1CCN(c2ccc(C#N)cc2)CC1)n1c(=S)[nH]c2ccccc2c1=O,IC50,Estrogen receptor,0.08 µM (not active)
CC(C)C(=O)N1CCN(c2ccc(NC(=O)c3ccc([N+](=O)[O-])o3)cc2Cl)CC1,CC50,HeLa,3.45 µM (active)
same,AC50,[4],7.05 µM (active)
same,AC50,[5],0.954 µM (active)
same,AC50,[6],27.8 µM (active)
same,AC50,[7],8.27 µM (active)
same,AC50,Paired box protein Pax-8,3.25 µM (active)
Cc1cc(C(=O)Cn2cnc3c2c(=O)n(C)c(=O)n3C)c(C)n1Cc1ccccc1,EC50,[8],> 30 µM (not active)
O=C(O)c1ccc([N+](=O)[O-])c2c1NC(c1ccccc1)C1CC=CC21 (stereo not given),EC50,Bcl-2-like protein 10,3.92 µM (active)
Cc1ccc(-n2c(=O)[nH]cc(C(=O)Nc3ccc4c(c3)OCO4)c2=O)cc1C,EC50,[9],7.75 µM (active)
COc1ccc(CNC2CCCc3ccccc32)cc1 (stereo not given),IC50,[10],3.59 µM (active)
CCCC1=NN2C(=N)/C(=C/c3c[nH]c4ccccc34)C(=O)N=C2S1,IC50,[11],64.6 µM (active)
O=S(=O)(Nc1ccccc1N1CCCCC1)c1cccs1,EC50,Mucolipin-3,2.3 µM (active)
same,EC50,Ion channel NompC,> 29.9 µM (not active)
O=[N+]([O-])c1cc(/C=N\Nc2nccs2)ccc1O,IC50,[12],30.9 µM (not active)
same,IC50,[13],3.15 µM (active)
same,IC50,[14],10.8 µM (active)
Cc1ccc(/C=N/NC(=O)c2[nH]nc3c2CCCC3)cc1,EC50,BJ [15],0.31 µM (inconclusive)
same,EC50,BJ [16],0.382 µM (active)
same,IC50,[17],0.32 µM (active)
same,EC50,BJ [18],0.37 µM (inconclusive)
same,EC50,[19],0.711 µM (inconclusive)
same,EC50,BJ [20],< 0.104 µM (active)
same,CC50,Vero,0.24 µM (active)
CCCCC(=O)/C=C/n1c(=S)oc2ccccc21,IC50,[21],> 100 µM (active)
same,CC50,[22],19.8 µM (active)
same,EC50,HEK293 [23],> 59.6 µM (inactive)
same,EC50,HEK293 [24],> 2.21 µM (active)
C=CCSc1nnc2c3cccc(C)c3nc-2[nH]1,EC50,[25],0.317 µM (active)
same,EC50,[26],< 0.1 µM (active)
same,EC50,[27],0.31 µM (active)
same,EC50,[28],0.311 µM (active)
